Measured values reported in US11573234B2, “Predicting responders to cyclophosphamide therapy” (Royal Melbourne Institute of Technology, priority 2017, dated 2023).
Read-outs that look alike come from different tables or passages of the source.

Tests used:
[1] = tested on: CCR4 expression on T cells in PBMCs; assay: In vitro drug experiment: CCR4 expression on T cells in PBMCs; conditions: 30 ng/ml, 72 hours
Experimental: To determine the frequency and phenotype of T cell populations in PBMCs, multicolour flow cytometry was performed using the following surface antibodies: anti-CD3, anti-CD8, anti-CD4, anti-CD25, and anti-CCR4. Antibodies were diluted in dPBS with 5% HS (staining buffer). Cells were stained at room temperature for 15 mins at a final concentration of 10^7 cells/150 μl of antibody cocktail. Cells were then washed twice with stain buffer. A fixable dead cell dye (live/dead, fixable aqua dead cell stain kit, Life Technologies, USA) was used to distinguish between dead and live cells. […] Intracellular levels of FoxP3 were determined following fixation and permeabilisation of cells using a fixation/permeabilisation buffer kit (eBioscience, USA). […] Fluorescence minus one (FMO) controls and isotype-matched antibodies were also used to enable accurate gating. Data were analysed using Flowjo software (TreeStar, USA).
CD4+ and CD8+ T cells were purified by labelling cells with the respective antibodies as described above, then using fluorescence activated cell sorting. […] Following incubation, cells were washed and CCR4 expression on Tregs and effector T cells were determined using flow cytometry as described above. […]

[2] = tested on: recurrent uterine and ovarian cancers; conditions: cited from earlier work; for response rates: second line, recurrent disease, cisplatin uterine, carboplatin ovarian cancers
[3] = tested on: ID8 tumour bearing animals; conditions: mouse, in vivo
Experimental: To address the effects of LDCy on immunity in tumour bearing animals, ID8 implanted animals (n=5/group) were treated at post challenge (at the onset of detectable tumour growth in vivo) with one cycle of LDCy and assessed changes in T cell subsets ex-vivo at days 1, 7 and 14 post in vivo treatment by flow cytometry.

[4] = tested on: advanced treatment-refractory gynaecological tumours
Experimental: (§1) Ten (10) human patients with gynaecological cancers with ages ranging from 62-82 years were recruited in a bicentric phase II trial. […] Disease progression was determined using RECIST and GCIG CA125 criteria (Rustin G J et al., (2011) Official journal of the International Gynaecological Cancer Society February; 21(2):419-23). From the time of recruitment, written consent was obtained from patients and pre-treatment blood samples were collected. Patients received oral doses of 50 mg cyclophosphamide twice daily (morning and evening), for 3 consecutive days and blood was collected 2 weeks later in EDTA coated tubes for whole blood and serum separation tubes for sera (BD Vacutainer, BD, USA). The treatment cycle and blood sampling were repeated at fortnightly intervals for up to 8 cycles. For healthy samples, buffy coats were obtained from routine blood donations, acquired at the Australian Red Cross Blood Service.

[5] = tested on: CCR4 expression on T cells
Experimental: as §1
Peripheral blood mononuclear cells (PBMCs) were isolated within 24 hours of blood collection via Ficoll (Amersham Pharmacia Biotech, Sweden) density gradient centrifugation. Cells were then washed in Dulbecco's Phosphate Buffered Saline (dPBS, Sigma-Aldrich, USA). The isolated PBMCs were frozen down in a freeze medium containing 10% DMSO (Sigma-Aldrich, USA) and 90% heat-inactivated fetal calf serum (GIBCO, Life Technologies, USA) or 90% human AB serum (Sera Laboratories International, UK) at a speed of 1° C./min at −80° C. and subsequently stored in liquid nitrogen. Upon thawing, each vial of frozen PBMCs was quickly defrosted in a 37° C. water-bath and re-suspended in AIM-V media (Life Technologies, USA) with 5% normal human serum (HS, Sigma-Aldrich, USA) (complete AIM-V media).
Cells were then washed twice with stain buffer. […] Data were analysed using Flowjo software (TreeStar, USA).
To investigate the effect of cyclophosphamide on CCR4 expression within T cells, the frequency of CCR4^+ cells pre-treatment (n=mean of 7-8 time points) was compared to the frequencies following each cycle of treatment (n=mean of 3-6 time points) for each individual patient.

[6] = tested on: CD107a on CD4+ and CD8+ T cells; conditions: 3 increased % CCR4 patients; PMA and ionomycin 6 hours
[7] = tested on: acetylation of H3K9, H3K14 and H3K18; assay: Histone 3 acetylation detection by flow cytometry; format: cell-based, human; conditions: 72 hours
Experimental: The acetylation of histone 3 at lysine (H3K)9, H3K14 and H3K18 was assessed using flow cytometry. […] In the last 4 hours of culture, 50 nM panobinostat (LBH589, a pan histone deacetylase (HDAC) inhibitor) was added to the IL-2 cultures. Cells were harvested and prepared for flow cytometry analysis as described above. Following surface labelling, fixation and permeabilisation, cells were labelled with unconjugated anti-H3K9, anti-H3K14 and anti-H3K18 (Cell Signalling Technology, USA). Secondary labelling was performed using an Alexa Fluor 488 conjugated donkey anti-rabbit Ig antibody (Biolegend, USA). Data were collected and analysed as above.

[8] = increased % CCR4 patients at time points of CCR4 increase, p<0.05

CC(=O)O[C@H]1C(=O)[C@@]2(C)[C@H]([C@H](OC(=O)c3ccccc3)[C@]3(O)C[C@H](OC(=O)[C@H](O)[C@@H](NC(=O)c4ccccc4)c4ccccc4)C(C)=C1C3(C)C)[C@]1(OC(C)=O)CO[C@@H]1C[C@@H]2O [paclitaxel]
frequency of CCR4+ T cells in healthy PBMCs [1]: does not Significantly Increase

N.N.O=C([O-])C1(C(=O)[O-])CCC1.[Pt+2] [carboplatin]
response rates [2]: around 20%

N.N.[Cl][Pt][Cl] [cisplatin]
response rates [2]: around 20%

O=P1(N(CCCl)CCCl)NCCCO1 (centres unmarked) [cyclophosphamide]
CCR4+ CD4 T cell effectors in peripheral blood [3]: a trend towards CCR4^+ CD4 T cell effector increases
CCR4+ Treg in peripheral blood [3]: no increases
CCR4+CD8+ T cells in peripheral blood [3]: clear increases
CD69+ CD4 T cell effectors in TILS [3]: a trend towards CD69^+ CD4 T cell effector increases
CD69+ Treg in TILS [3]: no CD69^+Treg increases
CD69+CD8+ T cells in tumour infiltrating lymphocytes (TILS) [3]: clearly increased
mean overall survival ([4]; CCR4 spike patients (n=4)): 476 ± 80 days
mean overall survival ([4]; CCR4 steady patients (n=6)): 163 ± 37 days
patients who achieved stable disease ([4]; of the 4 CCR4 spike patients): 3
patients who achieved stable disease ([4]; of the 6 CCR4 steady patients): None
increase in survival ([4]; patients with CCR4 up-regulation in vivo and in the in vitro CUP pre-test): > 300 days
survival of CCR4 spike patients relative to CCR4 steady patients ([4]; spike vs steady patients): approximately 3 times
mean ratio of CCR4+ Tconvs to CCR4+ Tregs, increased % CCR4 vs constant % CCR4 patients ([5]; first 3 cycles of treatment, p<0.01): over 2 fold
mean ratio of CCR4+ CD8+ T cells to CCR4+ Tregs, increased % CCR4 vs constant % CCR4 patients ([5]; first 3 cycles of treatment, p<0.05): over 3 fold
frequency of CCR4+ cells within Tregs compared to pre-treatment ([5]; increased % CCR4 patients at time points of CCR4 increase): not significantly increased
fold increase in the frequency of CCR4+ cells within CD8+ T cells compared to pre-treatment [5, 8]: 5 fold
fold increase in the frequency of CCR4+ cells within Tconvs compared to pre-treatment [5, 8]: 5 fold
CCR4 mean fluorescence intensity (MFI) within Tregs, Tconvs and CD8+ T cells relative to pre-treatment ([5]; increased % CCR4 patients, all 3 populations): remained unchanged
patients with significant increases in the frequency of CCR4+ cells within CD3+ T cells ([5]; of the 10 patients, following at least one cycle, within the first 3 cycles): 4
mean frequency of CD107a+ cells in CD4+ and CD8+ populations vs pre-treatment [6]: increased compared to pre-treatment samples, however neither increase was significant
clinical benefit (share of patients) ([2]; low dose, women with recurrent ovarian cancer): 25-44%

B1: IL-4: IL-4 (R&D systems, USA), cytokine used at 10 ng/ml (protein, UniProt P05112 25-153, looked up)
Interleukin-4: HKCDITLQEIIKTLNSLTEQKTLCTELTVTDIFAASKNTTEKETFCRAATVLRQFYSHHEKDTRCLGATAQQFHRHKQLIRFLKRLDRNLWGLAGLNSCPVKEANQSTLENFLERLKTIMREKYSKCSS
acetylation of H3K9 in CD8+ T cells ([7]; IL-4 10 ng/ml, p<0.05): slight but significant decrease
acetylation of H3K14 ([7]; mafosfamide […] or IL-4 10 ng/ml): Neither mafosfamide nor IL-4 treatment resulted in a change
